Patent US20230310408A1, “TLR7 INHIBITOR IN COMBINATION WITH PREDNISOLONE OR HYDROXYCHLOROQUINE FOR TREATING CUTANEOUS LUPUS ERYTHEMATOSUS” (priority 2020, published 2023)
“Also recorded” adds a separate entry of the source.

Columns and labels:
Type in all cases: in vivo, mouse
[1] = tested on: Female MRL/lpr mice; test: Combination studies in MRL/lpr model of lupus, advanced disease; conditions: 5 weeks; for total number of cutaneous lesions: doses of Table 2 (FIG. 12); for neck erythema of cutaneous lesions: doses of Table 2 (FIG. 13, FIG. 14); for ear erythema of cutaneous lesions: doses of Table 2 (FIG. 15); for total erythema of cutaneous lesions: doses of Table 2 (FIG. 16)
Procedure: Female MRL/lpr mice of 16 weeks of age were treated for 5 weeks. […] Total skin lesions score includes cumulative score of Neck/Back, Face, Head and Ear lesions.

[2] = tested on: Female MRL/lpr mice; test: Combination studies in MRL/lpr model of lupus, established disease; conditions: 5 weeks; for total number of cutaneous lesions: doses of Table 2 (FIG. 6); for neck erythema of cutaneous lesions: doses of Table 2 (FIG. 7); for ear erythema of cutaneous lesions: doses of Table 2 (FIG. 8); for total erythema of cutaneous lesions: doses of Table 2 (FIG. 9); for kidney injury marker proteinuria: doses of Table 2 (FIG. 10); for kidney injury marker urinary NGAL: doses of Table 2 (FIG. 11)
Procedure: Female MRL/lpr mice of 15 weeks of age were treated for 5 weeks. […] Total skin lesions score includes cumulative score of Neck/Back, Face, Head and Ear lesions

[3] = tested on: Female MRL/lpr mice; test: Cutaneous model of lupus: female MRL/lpr mice treated orally once daily for 8 weeks;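 as to all read-outs here: mice aged 12–14 weeks, randomized by anti-dsDNA antibody titer and urinary NGAL, treated groups compared against vehicle controls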; conditions: for % Survival / anti-dsDNA, anti-Ro and anti-smRNP auto-antibody titers / kidney injury markers (proteinuria and urinary NGAL) / cutaneous lesions (number of lesions on face, neck, head, ear; total lesions) / erythema of cutaneous lesions (neck, ear, total): oral once daily; for % Survival / cutaneous lesions (number of lesions on face, neck, head, ear; total lesions) / erythema of cutaneous lesions (neck, ear, total): 8 weeks; for anti-dsDNA, anti-Ro and anti-smRNP auto-antibody titers: 8 weeks (FIG. 3); for anti-dsDNA, anti-Ro and anti-smRNP auto-antibody titers / kidney injury markers (proteinuria and urinary NGAL): at 0.25 and 0.75 mg/kg Compound (I); for kidney injury markers (proteinuria and urinary NGAL): 8 weeks (FIG. 4); for cutaneous lesions (number of lesions on face, neck, head, ear; total lesions): versus vehicle (FIG. 1); for erythema of cutaneous lesions (neck, ear, total): versus vehicle (FIG. 2)

Row | Compound | total number of cutaneous lesions [1] | neck erythema of cutaneous lesions [1] | ear erythema of cutaneous lesions [1] | total erythema of cutaneous lesions [1] | total number of cutaneous lesions [2] | neck erythema of cutaneous lesions [2] | ear erythema of cutaneous lesions [2] | total erythema of cutaneous lesions [2] | kidney injury marker proteinuria [2] | kidney injury marker urinary NGAL [2] | anti-dsDNA, anti-Ro and anti-smRNP auto-antibody titers [3] | kidney injury markers (proteinuria and urinary NGAL) [3] | cutaneous lesions (number of lesions on face, neck, head, ear; total lesions) [3] | erythema of cutaneous lesions (neck, ear, total) [3] | other results
1 | CC12C=CC(=O)C=C1CCC1C2C(O)CC2(C)C1CCC2(O)C(=O)CO (stereo not shown) [Prednisolone, 11,17-dihydroxy-17-(2-hydroxyacetyl)-10,13-dimethyl-6,7,8,9,10,11,12,13,14,15,16,17-dodecahydrocyclopenta[a] phenanthren-3-one] | suppression of cutaneous lesions but less than treatment with Compound (I) | suppression | suppression of erythema of cutaneous lesions on the ear of mice but less than treatment with Compound (I) | suppression | suppression of cutaneous lesions but less than treatment with Compound (I) | suppression | suppression of erythema of cutaneous lesions on the ear of mice but less than treatment with Compound (I) | suppression | suppression | suppression | inhibition | reduction | inhibition | reduction | % Survival ([1]; 1 mg/kg): 86.6%; % Survival ([1]; 10 mg/kg): 93.3%; % Survival ([2]; 1 mg/kg): 93.3%; % Survival ([2]; 10 mg/kg): 93.3%; % Survival ([3]; 10 mg/kg): 100%
2 | hydroxychloroquine [HCQ] | suppression of cutaneous lesions but less than treatment with Compound (I) | suppression | suppression of erythema of cutaneous lesions on the ear of mice but less than treatment with Compound (I) | suppression | suppression of cutaneous lesions but less than treatment with Compound (I) | suppression | suppression of erythema of cutaneous lesions on the ear of mice but less than treatment with Compound (I) | suppression | suppression | suppression | – | – | – | – | % Survival ([1]; 100 mg/kg): 100%; % Survival ([2]; 100 mg/kg): 93.3%
3 | Cc1c(-c2[nH]c3ccc(C4CCN(CC(N)=O)CC4)cc3c2C(C)C)cn2ncnc2c1C [Compound (I), 2-(4-(2-(7,8-dimethyl-[1,2,4]triazolo[1,5-a]pyridin-6-yl)-3-isopropyl-1H-indol-5-yl)piperidin-1-yl)acetamide] | suppressed | suppressed; also recorded: increased suppression of erythema of cutaneous lesions on the neck of mice compared the treatment with hydroxychloroquine | suppressed | suppressed | suppressed | suppressed | suppressed | suppressed | suppression | suppression | Inhibition; also recorded: significant suppression | reduction; also recorded: Inhibition; also recorded: suppression | significant and robust dose-dependent suppression; also recorded: Dose-dependent inhibition | suppressed; also recorded: significant reduction; also recorded: Dose-dependent inhibition | % Survival ([1]; 0.25 mg/kg): 93.3%; % Survival ([2]; 0.25 mg/kg): 100%; % Survival ([3]; 0.005 mg/kg): 87%; % Survival ([3]; 0.02 mg/kg): 93%; % Survival ([3]; 0.25 mg/kg): 100%; % Survival ([3]; 0.75 mg/kg): 100%; Type I IFN response gene expression ([3]; at 0.25 and 0.75 mg/kg, blood, qPCR): inhibited
